From patent EP4309647A1, “G[…] FRACTIONS OF PINE NUT SKIN, METHODS AND USES THEREOF” (Universidade de Aveiro, priority 2022, dated 2024) come the findings set out here.

The nature of the assay: Effect on cholesterol solubility / bioaccessibility in an in vitro intestinal model (GDCA bile salt micelles, 13C NMR quantification of [4-13C]cholesterol). The following applies: cholesterol 3.5 mM, amount equivalent to 3.5 mM β-sitosterol. The method, then: In an embodiment, to evaluate the effect of the lipophilic extracts on cholesterol solubility, an in vitro intestinal model with glycodehoxycholic acid (GDCA) at 37 °C and pH 7.4 was used.
In an embodiment, solutions of cholesterol labeled with carbon-13 at carbon 4 ([4-^13C]cholesterol) with or without pine nut skin extracts was prepared in azeotropic mixtures of chloroform/methanol (87:13, v/v). Films are formed by solvent evaporation under a stream of nitrogen and heating. To remove possible traces of organic solvents, the films with cholesterol were placed on a desiccator under vacuum during, for example, 30 minutes at room temperature. […]
In an embodiment, to evaluate this effect, the bioaccessibility of labelled cholesterol([4-^13C]cholesterol) was measured by ^13C NMR, using an in vitro intestinal model composed of glycodeoxycholic acid bile salt micelles and lipophilic extracts from pine nut skin and from the two separated fractions, added individually.
In an embodiment, the quantification of cholesterol by ^13C NMR was possible due to the utilization of an isotopomer of cholesterol fully enriched in ^13C in carbon 4, which has a typical peak at 44 ppm, distinguishable from GDCA resonances. […] This methodology allows to quantify [4-^13C] cholesterol which is emulsified on the bile salt micelles, that is, the available quantity which is likely to be absorbed (bioaccessible). […]

In the case of `CC[C@H](CC[C@@H](C)[C@H]1CC[C@H]2[C@@H]3CC=C4C[C@@H](O)CC[C@]4(C)[C@H]3CC[C@]12C)C(C)C` [β-Sitosterol], the “cholesterol emulsified (solubilized, bioaccessible)” value (GDCA 50 mM) was determined as 1.6 mM. Besides, the “reduction of cholesterol solubility / bioaccessability relatively to the control” value (control = GDCA and [4-13C]cholesterol) came out at 49%.
